Measured values as given in PMC9118553, “In Vivo Bioconcentration of 10 Anionic Surfactants in Rainbow Trout Explained by In Vitro Data on Partitioning and S9 Clearance” (Environmental Science & Technology, 2022).
“And” between values parts separate entries of the source, which are not always exact repeats. Equal entries are not always repeated.

System: rainbow trout
Assay: In vivo bioconcentration experiment with a mixture of anionic surfactants, flow-through aquaria, 10 °C, pH 7.8;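 on Uptake rate constant kU: L kg-1 h-1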
Conditions: for Log BCF: determined with measured concentrations in water; for Concentration in fish: individual fish; for diffusion coefficient (D) in the epithelial membrane of the gills: in vivo; for BCF (kinetic): kinetic BCF from measured concentrations in water
Protocol: The bioconcentration of a mixture of 10 anionic surfactants was measured in rainbow trout in water at pH 7.8. […] The experiment was conducted in flow-through aquaria with juvenile rainbow trout at 10 °C. Ethical approval for the experiments was obtained from Stockholms […] (decision 9967-2017). The fish, fish housing, fish handling, and procedure for introducing the mixture of […] chemicals were very similar to our previous study with cationic surfactants;[5] details are provided in Text S1. The experiment consisted of a 4-day exposure phase and a 7-day depuration phase. […] Water samples were collected and fish were sacrificed according to the schedule in Table S4. The water samples were collected just prior to the daily removal of feces from the aquarium. Triplicate samples were taken at each time point. […] The water/methanol mixture was analyzed using liquid chromatography-mass spectrometry (LC-MS)/MS as described below for fish. At each fish sampling, five fish were sacrificed. Following stunning and severance of the spinal cord, the whole fish were placed in a polyethylene bag, weighed, and immediately frozen at -20 °C. The weight of the individual fish at sacrifice was 24.0 ± 5.6 g. Three of the five fish from each time point were prioritized for analysis based on proximity to the median fish weight. Each fish was […] homogenized with an Ultra-turrax dispersing device. […] This mixture was homogenized in a bullet blender for 5 min and then placed in an ultrasound bath at 45 °C for 15 min. Following centrifugation for 15 min@3200 RCF, the supernatant was decanted and the extraction was repeated. The extracts were combined. For instrumental analysis, 5 μL of the fish extract or 60 μL of the water/methanol mixture (water samples) was separated on an Acquity UPLC BEH C18 column fitted with a BEH C18 pre-column and analyzed on a TSQ Quantiva triple quadrupole mass spectrometer. The mobile phase was methanol (10 mM ammonium acetate) and Milli-Q-filtered water (10 mM ammonium acetate) (see Table S5 for the liquid chromatography program). To avoid detergent blank peaks originating from cleaning mobile phase bottles, the methanol was prepared directly in the solvent bottle as delivered and Milli-Q was tapped into an empty methanol bottle. Furthermore, a guard column was fitted between the mobile phase and the autosampler to prevent background contamination from disturbing the analysis. All analytes were quantified against the BEHP internal standard, as it gave better reproducibility. […] The central goal of the analysis was to estimate kU and kT as well as the BCF (=kU/kT) from measurements of surfactant concentration in fish and water samples collected at different time points of the experiment. For the fish, only those time points were included for which CF(measured) was above the limit of quantitation (LOQ) in all three fish (data below the LOQ will have a positive bias; including them would result in a negative bias in kT). In this analysis, there exist two sources of uncertainty: first, uncertainty in the actual concentration in water CW at the time of sample collection and second, variability in the concentration in fish around the (expected) surfactant concentrations in fish assumed to follow model (1). We therefore set up a model in which we considered uncertainty in both water and fish measurements simultaneously by assuming a parametric model for the surfactant concentration in the water over time (either linear or quadratic) and accounted for the uncertainty in the corresponding parameters of the water model during the estimation of kU and kT. This was done in a joint Bayesian model that we estimated via Hamiltonian Monte Carlo. […]

[1] = determined using nominal concentrations in water
[2] = from measured concentrations in water, Bayesian estimate, 95% credible interval in brackets
[3] = 95% credible interval in brackets
[4] = measured concentrations in water, simpler estimation method (Text S3), 95% confidence intervals in brackets

SMILES | BCF [1] | Elimination rate constant kT [1] | Uptake rate constant kU [1] | Log BCF | Concentration in fish (elimination phase, 97 h) | Concentration in fish (elimination phase, 98 h) | Concentration in fish (elimination phase, 100 h) | Concentration in fish (elimination phase, 103 h) | Concentration in fish (elimination phase, 120 h) | Concentration in fish (elimination phase, 128 h) | Concentration in fish (elimination phase, 144 h) | Concentration in fish (elimination phase, 168 h) | Concentration in fish (elimination phase, 192 h) | Concentration in fish (elimination phase, 264 h) | Concentration in fish (exposure phase, 1 h) | Concentration in fish (exposure phase, 2 h) | Concentration in fish (exposure phase, 3 h) | Concentration in fish (exposure phase, 4 h) | Concentration in fish (exposure phase, 6 h) | Concentration in fish (exposure phase, 24 h) | further results
CCCCCCCCCCCCOCCOCCOCCOCCOS(=O)(=O)O [C12-EO4-SO4, dodecyltetraethoxysulfate] | 1.42 L kg-1 ww | 0.114 h⁻¹ | 0.162 L/kg/h | -0.05 L kg-1 ww | 35 ng g-1 ww and 26 ng g-1 ww and 27 ng g-1 ww | 17.6 ng g-1 ww and 19.9 ng g-1 ww and 15.8 ng g-1 ww | 35.9 ng g-1 ww and 14.4 ng g-1 ww and 21 ng g-1 ww | 11.6 ng g-1 ww and 16.1 ng g-1 ww and 15.1 ng g-1 ww | 7.0 ng g-1 ww and 8.6 ng g-1 ww and 3.1 ng g-1 ww | 5.5 ng g-1 ww and 7.5 ng g-1 ww and 4.5 ng g-1 ww | 4.7 ng g-1 ww and 5.3 ng g-1 ww and 4.5 ng g-1 ww | 4.1 ng g-1 ww and 2.7 ng g-1 ww and 1.8 ng g-1 ww | 1.6 ng g-1 ww and 3.6 ng g-1 ww and 1.8 ng g-1 ww | 3.3 ng g-1 ww and 2.4 ng g-1 ww and 1.5 ng g-1 ww | 4.3 ng g-1 ww and 6.7 ng g-1 ww and 6.6 ng g-1 ww | 6.7 ng g-1 ww and 8.9 ng g-1 ww and 6.4 ng g-1 ww | 12.1 ng g-1 ww and 10.4 ng g-1 ww and 10.6 ng g-1 ww | 14.5 ng g-1 ww and 16.2 ng g-1 ww and 14.2 ng g-1 ww | 23 ng g-1 ww and 18.6 ng g-1 ww and 13.5 ng g-1 ww | 24 ng g-1 ww and 34 ng g-1 ww and 23 ng g-1 ww | Concentration in fish (exposure phase, 48 h): 26 ng g-1 ww and 33 ng g-1 ww and 38 ng g-1 ww; Concentration in fish (exposure phase, 72 h): 30 ng g-1 ww and 39 ng g-1 ww and 35 ng g-1 ww; Concentration in fish (exposure phase, 96 h): 45 ng g-1 ww and 27 ng g-1 ww and 42 ng g-1 ww; Elimination rate constant kT [2]: 0.100 (0.083–0.120) h^–1; Uptake rate constant kU [2]: 0.090 (0.074–0.109) L kg^–1 ww h^–1; diffusion coefficient (D) in the epithelial membrane of the gills: 2.0 × 10^–8 m h^–1; BCF (kinetic) [3]: 0.89 (0.80–1.01) L kg^–1 ww; BCF [4]: 0.92 (29) L kg-1 ww; Elimination rate constant kT [4]: 0.098 (26) h-1; Uptake rate constant kU [4]: 0.090 (12) L kg-1 ww h-1
CCCCCCCCCCCCCS(=O)(=O)O [C13SO3, tridecylsulfonate] | 3.9 L kg-1 ww | 0.065 h⁻¹ | 0.25 L/kg/h | 0.65 L kg-1 ww | 15.7 ng g-1 ww and 14.6 ng g-1 ww and 19.2 ng g-1 ww | 14.6 ng g-1 ww and 12.4 ng g-1 ww and 14.8 ng g-1 ww | 33 ng g-1 ww and 10.3 ng g-1 ww and 12.1 ng g-1 ww | 10.0 ng g-1 ww and 23 ng g-1 ww and 11.1 ng g-1 ww | 6.4 ng g-1 ww and 4.3 ng g-1 ww and 2.9 ng g-1 ww | 2.8 ng g-1 ww and 2.3 ng g-1 ww and 4.9 ng g-1 ww | 1.63 ng g-1 ww and 1.18 ng g-1 ww and 1.59 ng g-1 ww | 0.83 ng g-1 ww and 1.89 ng g-1 ww and 0.64 ng g-1 ww | 0.40 ng g-1 ww and 0.33 ng g-1 ww and 0.60 ng g-1 ww | 0.30 ng g-1 ww and 0.13 ng g-1 ww and 0.02 ng g-1 ww | 15.3 ng g-1 ww and 2.5 ng g-1 ww and 35 ng g-1 ww | 3.2 ng g-1 ww and 3.0 ng g-1 ww and 2.3 ng g-1 ww | 4.7 ng g-1 ww and 5.8 ng g-1 ww and 4.5 ng g-1 ww | 8.1 ng g-1 ww and 54 ng g-1 ww and 202 ng g-1 ww | 10.5 ng g-1 ww and 10.3 ng g-1 ww and 8.5 ng g-1 ww | 24 ng g-1 ww and 21 ng g-1 ww and 17.0 ng g-1 ww | Concentration in fish (exposure phase, 48 h): 19.4 ng g-1 ww and 20 ng g-1 ww and 17.1 ng g-1 ww; Concentration in fish (exposure phase, 72 h): 30 ng g-1 ww and 16.7 ng g-1 ww and 15.0 ng g-1 ww; Concentration in fish (exposure phase, 96 h): 22 ng g-1 ww and 19.7 ng g-1 ww and 28 ng g-1 ww; Elimination rate constant kT [2]: 0.057 (0.052–0.062) h^–1; Uptake rate constant kU [2]: 0.25 (0.22–0.29) L kg^–1 ww h^–1; diffusion coefficient (D) in the epithelial membrane of the gills: 3.5 × 10^–8 m h^–1; BCF (kinetic) [3]: 4.5 (4.1–5.0) L kg^–1 ww; BCF [4]: 4.3 (12) L kg-1 ww; Elimination rate constant kT [4]: 0.057 (7) h-1
CCCCCCCCCCCCCOS(=O)(=O)O [C13SO4, tridecylsulfate] | 31 L kg-1 ww | 0.074 h⁻¹ | 2.29 L/kg/h | 1.53 L kg-1 ww | 99 ng g-1 ww and 120 ng g-1 ww and 148 ng g-1 ww | 111 ng g-1 ww and 104 ng g-1 ww and 80 ng g-1 ww | 104 ng g-1 ww and 78 ng g-1 ww and 80 ng g-1 ww | 58 ng g-1 ww and 80 ng g-1 ww and 82 ng g-1 ww | 32 ng g-1 ww and 40 ng g-1 ww and 25 ng g-1 ww | 21 ng g-1 ww (2×) and 29 ng g-1 ww | 14.4 ng g-1 ww and 11.1 ng g-1 ww and 13.5 ng g-1 ww | 12.9 ng g-1 ww and 6.4 ng g-1 ww and 7.3 ng g-1 ww | 4.0 ng g-1 ww and 4.7 ng g-1 ww and 3.9 ng g-1 ww | 3.8 ng g-1 ww and 2.1 ng g-1 ww and 1.7 ng g-1 ww | 34 ng g-1 ww and 28 ng g-1 ww and 54 ng g-1 ww | 40 ng g-1 ww and 42 ng g-1 ww and 27 ng g-1 ww | 61 ng g-1 ww and 67 ng g-1 ww and 60 ng g-1 ww | 88 ng g-1 ww and 108 ng g-1 ww and 187 ng g-1 ww | 139 ng g-1 ww and 132 ng g-1 ww and 97 ng g-1 ww | 255 ng g-1 ww (2×) and 188 ng g-1 ww | Concentration in fish (exposure phase, 48 h): 140 ng g-1 ww and 234 ng g-1 ww and 190 ng g-1 ww; Concentration in fish (exposure phase, 72 h): 201 ng g-1 ww and 154 ng g-1 ww and 128 ng g-1 ww; Concentration in fish (exposure phase, 96 h): 175 ng g-1 ww and 150 ng g-1 ww and 275 ng g-1 ww; Elimination rate constant kT [2]: 0.048 (0.043–0.053) h^–1; Uptake rate constant kU [2]: 1.62 (1.38–1.91) L kg^–1 ww h^–1; diffusion coefficient (D) in the epithelial membrane of the gills: 3.9 × 10^–8 m h^–1; BCF (kinetic) [3]: 34 (29–40) L kg^–1 ww; BCF [4]: 31 (16) L kg-1 ww; Elimination rate constant kT [4]: 0.053 (7) h-1; Uptake rate constant kU [4]: 1.64 (15) L kg-1 ww h-1; BCF (own values): 34 L kg^–1
